Test results reported in PMC9468011 (Nature Communications, 2022).

Target: T1, G-Flamp1 (cpGFP inserted into mlCNBD of the MlotiK1 channel) (Mesorhizobium japonicum, UniProt Q98GN8, P285N/S308V)
T1 construct: gene mll3241; GFP D173G plus Citrine/sfGFP mutations) inserted between residues 285 and 286; N-terminal RSET 6xHis tag kept for Kd; tag-free (SUMO cut) for crystal; E. coli; monomer
T1 sequence (Q98GN8 213-355 P285N/S308V): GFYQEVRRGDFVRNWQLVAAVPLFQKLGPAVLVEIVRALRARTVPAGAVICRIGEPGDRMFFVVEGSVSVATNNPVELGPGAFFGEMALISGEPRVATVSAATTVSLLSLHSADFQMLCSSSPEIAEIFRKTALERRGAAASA
Experiment: fluorescence titration of purified sensor (ex […] nm), sigmoidal fit
Type: binding

Kd: 30.1 µM
SMILES: Nc1nc2c(ncn2[C@@H]2O[C@@H]3COP(=O)(O)O[C@H]3[C@H]2O)c(=O)[nH]1 [cGMP]
